Measurements published in patent publication US20060127381A1, “Live bacterial preparation of bacillus coagulans for the treatment of ulcerative colitis, method for producing the same and use thereof” (priority 2004, published 2006).
Marks after values point to notes of the source that are not given here.

Tested on: experimental ulcerative colitis
Test: DSS modeling and treatment of experimental ulcerative colitis in rat
Assay type: in vivo, SD rat
Conditions: SASP 0.02 g/ml i.g., twice a day for 21 days
Experimental: The producing method of live bacteria preparation of Bacillus coagulans for the treatment of ulcerative colitis comprises following steps: incubating Bacillus coagulans by fermentation; drying bacteria slurry after centrifugation to obtain live bacteria powder, which is then prepared as suitable dosage forms. Ulcerative colitis is characterized in that pathological change mostly occurs at rectum and sigmoid flexure, or throughout the whole colon. A microscopic examination of colon can show mucosal blooding, edema, erosion or superficial ulcertion on affected intestine with mucus and inflammatory exudate covered thereon. Bleeding, inflammatory cell infiltration, epithelial cell decreasing, crypt collapsing and distorting, abscess formation are also often found in microscopic examination. Chronic ulcer may heal to form scar or pseudopolyp. Experimental study is to administrate dextran sodium sulfate (DSS) to SD rat by i.g. and rectal injection to induce experimental ulcerative colitis model, and then subject the modeled rat to experimental treatment with a live bacterial tablet of Bacillus coagulans, whereby the treatment effect of tablet is evaluated. The use is to apply the live bacterial tablet of Bacillus coagulans to clinically treat patients suffering from ulcerative colitis, whereby the efficacy and safety of the live bacterial preparation for UC patients is evaluated.
60 rats were kept under a sterile environment before test. Normal intestinal flora was taken from stools in the rats' anuses and incubated. 10 rats were taken as normal control and other 50 rats as experimental group. According a modified UC rat modeling method (Xiaoping Wu etc., Chinese Journal of Digestion, Vol. 23(5):305, 2003), 3% dextran sodium sulfate (DSS) solution was i.g. administrated to rats with empty stomachs (1 ml/100 g), once a day for 7 days. At the last time, 1 ml/rat of DSS was additionally injected into recta through anuses. After 7 days, stools were taken for flora analysis. 10 rats were then sacrificed and colons were removed by laparocolectomy. The wet weights of colons were measured (g/100 g body weight). The colons was fixed with formaldehyde and stained with alcian blue solution (Sino-American Biotec). The point counts of ulcer and erosion parts were observed by naked eye. Areas (cm^2) of the largest stained blue points were measured with calipers. After the confirmation of UC formation, rats were divided into 4 groups, 10 rats per group. The rats were administrated i.g. with live bacteria tablet of Bacillus coagulans(BC) (10^7 cfU/ml, 10^6 cfU/ml), 0.02 g/ml salicylazosulfapyridine (SASP) and normal saline solution (NS), respectively, twice a day for 21 days, afterwhich the stools were taken for flora analysis. Thereafter, all of the rats were sacrificed. Colon specimens were treated according to above method and corresponding indicators were determined. In addition, intestinal tissue masses were sampled to prepare 5% homogenates, which were determined for their activities of myeloperoxidase (MPO) (U/g·wet slice) with myeloperoxidase test kit (Nanjing JianCheng Bioengineering Institute) by ultraviolet spectrometry (Beijing Technical Application Institute).
The intestinal flora was incubated and analyzed as follows. Fresh stools were extruded out from rats' anuses under sterile condition before or after modeling and after treatment, respectively. […]

Structure (SMILES): O=C(O)c1cc(/N=N/c2ccc(S(=O)(=O)Nc3ccccn3)cc2)ccc1O [SASP, salicylazosulfapyridine]
- Intestinal wet weight (g/100 g body weight): 0.54 ± 0.05**^Δ g/100 g body weight
- Ulcer or erosion points, Count of Points: 2.20 ± 0.79**^ΔΔ
- Ulcer or erosion points, area (cm^2): 0.22 ± 0.18**^Δ cm^2
- Body weight (g) After treatment (DSS-modeled rats): 264.00 ± 13.50 g
- MPO activity (U/g wet weight) (intestinal tissue homogenate): 0.20 ± 0.10**^ΔΔ U/g wet weight
